Data as given in article PMC6969910, “Repurposing Dihydropyridines for Treatment of Helicobacter pylori Infection” (Pharmaceutics, 2019).
Values after ≈ are worked out from the molar mass of the structure shown. Read-outs that look alike come from different tables or passages of the source.

Assays:
Mouse [1] = test: Mouse oral median lethal dose (LD50); format: in vivo; details: oral dose 100 mg/kg/day versus mouse oral LD50
[2] = target: T1, H. pylori HsrA response regulator (Helicobacter pylori, UniProt O25684); format: biochemical; details: EMSA; for Inhibition of the DNA binding activity of HsrA: 6 µM HsrA, 120 ng target promoter, 0.1 to 2 mM DHP; for Inhibition of HsrA activity at 100 μM: 100 μM drug, 6 μM HsrA
Procedure: The in vitro biological activity of the H. pylori HsrA response regulator and its potential inhibition by DHP drugs were assessed by electrophoretic mobility shift assay (EMSA) as previously described. Briefly, 120 ng of target DNA (promoter region of the H. pylori porGDAB operon) was mixed with 6 µM of recombinant HsrA [17] in the presence of increasing concentrations (0.1 to 2 mM) of selected DHP drugs. Mixtures of DNA and protein in a 20 μL reaction volume containing 10 mM bis-Tris (pH 7.5), 40 mM KCl, 100 mg/L BSA, 1 mM DTT and 5% glycerol were incubated at room temperature for 20 min and then separated by 6% native polyacrylamide gel electrophoresis. A 150 bp fragment of the Anabaena sp. PCC 7120 gene pkn22 was included as non-specific competitor DNA in all assays. EMSA gels were stained with SYBR Safe® (Thermo Fisher Scientific, Bothell, WA, USA) and analyzed using the Bio-Rad Gel Doc 2000 imaging system.

Mouse [3] = details: cited from earlier work
H. pylori strain PMSS1 = test: H. pylori gastric colonization in C57BL/6 mice (bacterial counts and qPCR); format: in vivo, Helicobacter pylori (in C57BL/6 mice); details: PMSS1, oral 100 mg/kg/day marketed formulation + omeprazole 140 mg/kg/day, 7 days, vs infected non-treated
[4] = system: H. pylori ATCC 43504 (metronidazole-resistant); test: MIC/MBC by broth microdilution, strain ATCC 43504 (MTZ-R); format: cell-based; details: Helicobacter pylori; for MBC: ATCC43504; for MIC: ATCC43504, 72 h
[5] = system: H. pylori ATCC 700684 (clarithromycin resistant); test: MIC/MBC by broth microdilution, strain ATCC 700684 (CLR-R); format: cell-based; details: Helicobacter pylori; for MBC: ATCC700684; for MIC: ATCC700684, 72 h
H. pylori ATCC 700392 = test: MIC/MBC by broth microdilution, strain ATCC 700392; format: cell-based; details: Helicobacter pylori, ATCC700392; for MBC: ATCC 700392; for MIC: ATCC 700392, 72 h
[6] = target: T1, H. pylori HsrA response regulator; test: biochemical; format: binding; details: for n (binding stoichiometry): absolute error 0.06; for ΔG: absolute error 0.2 kcal/mol; for ΔH: absolute error 0.4 kcal/mol
Procedure: Thermodynamic parameters of the molecular interaction between HsrA and its DHP-class inhibitors were analyzed by isothermal titration calorimetry (ITC) using an AutoiTC200 calorimeter (MicroCal, Malvern Instruments, Malvern, Worcestershire, UK). A solution of 20 µM of the protein in 50 mM Tris-HCl [pH 8], 150 mM NaCl, 10% glycerol, 1% DMSO was titrated with 200 µM of the corresponding ligand (DHP) dissolved in the same buffer at 25 °C. A total of 19 injections of 2 μL was added sequentially to the sample cell after 150 s spacing to ensure that the thermal power returned to the baseline before the next injection. Dissociation constants and binding enthalpies were calculated by non-linear least squares regression data analysis using the software package Origin 7.0 (OriginLab, Northampton, MA, USA).

[7] = system: H. pylori essential response regulator HsrA; design: method as in PMID 31383920; details: binds native state of HsrA; cited from earlier work
[8] = system: H. pylori strain ATCC 700684; test: Time-kill kinetics assay; format: cell-based, Helicobacter pylori; details: 2 × MIC
Procedure: Time–kill curves for selected DHP drugs were determined using the H. pylori strain ATCC 700684 [17]. […] DMSO instead of drugs was included as control. Colony forming units (CFUs) were determined after 4, 8, and 24 h of drug exposition by culturing on Blood Agar Base No.2 supplemented with 8% defibrinated horse blood for 72 h under microaerobic conditions. Each determination was performed twice in triplicate and the results were presented as log10 CFU/mL versus incubation time. Statistical analysis was performed using the Mann–Whitney U test. A p value smaller than 0.05 was considered significant.

[9] = system: different strains of H. pylori; design: method as in PMID 31383920; details: including metronidazole- and clarithromycin-resistant strains; cited from earlier work
[10] = target: T1, H. pylori HsrA response regulator; design: method as in PMID 31383920; details: previous work; cited from earlier work
[11] = system: H. pylori ATCC 43504 (MTZ-R); test: Checkerboard assay with metronidazole, strain ATCC 43504; format: cell-based, Helicobacter pylori
Procedure: (§1) Antibacterial synergies of selected DHPs in combination with first-line anti-H. pylori antibiotics were tested by the checkerboard assay. Using 96-well flat-bottom microtiter plates, we assayed the antibacterial effect of the interaction of a range of 2-fold dilutions of clarithromycin or metronidazole with a range of 2-fold dilutions of each selected DHP. Serial dilutions of both antimicrobials (antibiotic and DHP) were firstly prepared using two different sterile microtiter plates, one compound was diluted along the rows in a first plate, and the other compound was diluted along the columns of a second plate. Then, both gradients were mixed in a third microtiter plate and inoculated with a freshly prepared bacterial suspension of H. pylori at 2 × 10^6 CFU/mL in BHI+FBS. Plates were incubated for 48 h at 37 °C under microaerobic conditions. […] The interaction between drugs was determined by calculating the fractional inhibitory concentration index (FICI) as: FICA (MICA in the presence of B/MICA alone) + FICB (MICB in the presence of A/MICB alone).

[12] = system: H. pylori ATCC 700684 (CLR-R); test: Checkerboard assay with clarithromycin, strain ATCC 700684; format: cell-based, Helicobacter pylori
Procedure: as §1

[13] = ITC, 25 °C, pH 8, relative error 40%, read-out: Kd

T1 sequence (O25684 entry or part of it): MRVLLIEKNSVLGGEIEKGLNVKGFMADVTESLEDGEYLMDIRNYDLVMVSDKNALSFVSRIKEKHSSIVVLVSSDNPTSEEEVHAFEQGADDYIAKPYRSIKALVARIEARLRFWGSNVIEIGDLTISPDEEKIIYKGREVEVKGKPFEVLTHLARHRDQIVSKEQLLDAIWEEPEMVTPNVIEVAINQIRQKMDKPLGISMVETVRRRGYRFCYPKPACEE

| SMILES | Inhibition of the DNA binding activity of HsrA [2] | Mouse LD50 (mg/kg, oral) (Mouse [3]; ref PubChem) | MBC [4] | MIC [4] | MBC [5] | MIC [5] | MBC (H. pylori ATCC 700392) | MIC (H. pylori ATCC 700392) | n (binding stoichiometry) ([6]; ITC, 25 °C, pH 8) | ΔG ([6]; ITC, 25 °C, pH 8) | ΔH ([6]; ITC, 25 °C, pH 8) | Bactericidal activity against different strains of H. pylori [9] | Inhibition of the biological activity of HsrA [10] | further results |
| --- | --- | --- | --- | --- | --- | --- | --- | --- | --- | --- | --- | --- | --- | --- |
| CCOC(=O)C1=C(C)NC(C)=C(C(=O)OC)C1c1cccc([N+](=O)[O-])c1 (centres unmarked) [Nitrendipine] | noticeably inhibited | 2540 mg/kg | 16 µg/mL (≈ 44.4 µM) | 16 µg/mL (≈ 44.4 µM) | 8 µg/mL (≈ 22.2 µM) | 8 µg/mL (≈ 22.2 µM) | 8 µg/mL (≈ 22.2 µM) | 8 µg/mL (≈ 22.2 µM) | 0.75 | -6.9 kcal/mol | -2.6 kcal/mol |  |  | Treatment dose, times lower than LD50 (Mouse [1]): 25.4 times; H. pylori gastric colonization, bacterial counts (CFU/mg of stomach) (H. pylori strain PMSS1): significantly reduced; H. pylori gastric colonization, qPCR (bacteria per 10,000 murine cells) (H. pylori strain PMSS1): significantly reduced; Kd [6]: 9 µM |
| CC[C@H]1OC(=O)[C@H](C)[C@@H](O[C@H]2C[C@@](C)(OC)[C@@H](O)[C@H](C)O2)[C@H](C)[C@@H](O[C@@H]2O[C@H](C)C[C@H](N(C)C)[C@H]2O)[C@](C)(OC)C[C@@H](C)C(=O)[C@H](C)[C@@H](O)[C@]1(C)O [Clarithromycin] |  |  | ≤ 0.12 µg/mL | ≤ 0.12 µg/mL | 32 µg/mL (≈ 42.8 µM) | 16 µg/mL (≈ 21.4 µM) | ≤ 0.12 µg/mL | ≤ 0.12 µg/mL |  |  |  |  |  |  |
| COC(=O)C1=C(C)NC(C)=C(C(=O)OCCN(C)Cc2ccccc2)C1c1cccc([N+](=O)[O-])c1 (centres unmarked) [Nicardipine] | noticeably inhibited | 305 mg/kg | 8 µg/mL (≈ 16.7 µM) | 8 µg/mL (≈ 16.7 µM) | 8 µg/mL (≈ 16.7 µM) | 8 µg/mL (≈ 16.7 µM) | 8 µg/mL (≈ 16.7 µM) | 8 µg/mL (≈ 16.7 µM) | 0.72 | -7.5 kcal/mol | -2.0 kcal/mol |  |  | Inhibition of HsrA activity at 100 μM [2]: partially inhibited; Effect on HsrA conformational stability (thermal shift) [7]: increased the protein conformational stability; Kd [6, 13]: 3 µM; Decline in bacterial counts (time-kill kinetics) compared to other DHPs [8]: significantly faster; Killing effect after 4 h of exposition [8]: completely lethal |
| O=c1cc(-c2ccccc2)oc2cc(O)cc(O)c12 [chrysin] |  |  |  |  |  |  |  |  |  |  |  | strong bactericidal activities | noticeably inhibited |  |
| Cc1ncc([N+](=O)[O-])n1CCO [Metronidazole] |  |  | 128 µg/mL (≈ 748 µM) | 64 µg/mL (≈ 374 µM) | 2 µg/mL (≈ 11.7 µM) | 1 µg/mL (≈ 5.84 µM) | 2 µg/mL (≈ 11.7 µM) | 1 µg/mL (≈ 5.84 µM) |  |  |  |  |  |  |
| COCCOC(=O)C1=C(C)NC(C)=C(C(=O)OC(C)C)C1c1cccc([N+](=O)[O-])c1 (centres unmarked) [Nimodipine] | noticeably inhibited | 940 mg/kg | 32 µg/mL (≈ 76.5 µM) | 16 µg/mL (≈ 38.2 µM) | 4 µg/mL (≈ 9.56 µM) | 4 µg/mL (≈ 9.56 µM) | 8 µg/mL (≈ 19.1 µM) | 8 µg/mL (≈ 19.1 µM) | 0.71 | -7.3 kcal/mol | -2.1 kcal/mol |  |  | Treatment dose, times lower than LD50 (Mouse [1]): 9.4 times; H. pylori gastric colonization, bacterial counts (CFU/mg of stomach) (H. pylori strain PMSS1): significantly reduced; H. pylori gastric colonization, qPCR (bacteria per 10,000 murine cells) (H. pylori strain PMSS1): significantly reduced; Kd [6, 13]: 4.1 µM; Reduction of the MIC value of metronidazole ([11]; in combination with DHP, ATCC 43504): up to 8 times; FICantibiotic ([11]; metronidazole in combination with DHP, ATCC 43504 (MTZ-R)): 0.125 |
| COC(=O)C1=C(C)NC(C)=C(C(=O)OC)C1c1ccccc1[N+](=O)[O-] [Nifedipine] |  |  | 16 µg/mL (≈ 46.2 µM) | 16 µg/mL (≈ 46.2 µM) | 8 µg/mL (≈ 23.1 µM) | 8 µg/mL (≈ 23.1 µM) | 8 µg/mL (≈ 23.1 µM) | 8 µg/mL (≈ 23.1 µM) |  |  |  |  |  | Decline in bacterial counts (time-kill kinetics) compared to other DHPs [8]: significantly slower |
| COc1ccc([C@@H]2CC(=O)c3c(O)cc(O)cc3O2)cc1O [hesperetin] |  |  |  |  |  |  |  |  |  |  |  | strong bactericidal activities | noticeably inhibited |  |
| COC(=O)C1=C(C)NC(C)=C(C(=O)OC(C)(C)CN(C)CCC(c2ccccc2)c2ccccc2)C1c1cccc([N+](=O)[O-])c1 (centres unmarked) [Lercanidipine] | noticeably inhibited |  | 64 µg/mL (≈ 105 µM) | 32 µg/mL (≈ 52.3 µM) | 8 µg/mL (≈ 13.1 µM) | 8 µg/mL (≈ 13.1 µM) | 8 µg/mL (≈ 13.1 µM) | 8 µg/mL (≈ 13.1 µM) | 0.81 | -6.4 kcal/mol | -4.8 kcal/mol |  |  | Mouse LD50 (mg/kg, oral) (Mouse [3]): 622 mg/kg; FICantibiotic ([12]; clarithromycin in combination with DHP, ATCC 700684 (CLR-R)): 0.0625; Reduction of the MIC value of clarithromycin ([12]; in combination with DHP, ATCC 700684): up to 16 times; Kd [6, 13]: 20 µM |
| O=c1cc(-c2ccc(O)cc2)oc2cc(O)cc(O)c12 [apigenin] |  |  |  |  |  |  |  |  |  |  |  | strong bactericidal activities | noticeably inhibited |  |
| O=c1c(O)c(-c2ccc(O)cc2)oc2cc(O)cc(O)c12 [kaempferol] |  |  |  |  |  |  |  |  |  |  |  | strong bactericidal activities | noticeably inhibited |  |
| COC(=O)C1=C(C)NC(C)=C(C(=O)OCC(C)C)C1c1ccccc1[N+](=O)[O-] (centres unmarked) [Nisoldipine] | noticeably inhibited | 411 mg/kg | 16 µg/mL (≈ 41.2 µM) | 16 µg/mL (≈ 41.2 µM) | 4 µg/mL (≈ 10.3 µM) | 4 µg/mL (≈ 10.3 µM) | 4 µg/mL (≈ 10.3 µM) | 4 µg/mL (≈ 10.3 µM) | 0.70 | -6.8 kcal/mol | -2.2 kcal/mol |  |  | Inhibition of HsrA activity at 100 μM [2]: partially inhibited; Kd [6]: 11 µM; Decline in bacterial counts (time-kill kinetics) compared to other DHPs [8]: significantly faster; Killing effect after 4 h of exposition [8]: completely lethal |
